Source: patent US20260226077A1, “TYPE II TOPOISOMERASE INHIBITORS AND METHODS OF MAKING AND USING THEREOF” (Ohio State Innovation Foundation, priority 2023, published 2026)
≈ marks a conversion by molar mass, not a printed value. Marks after values point to notes of the source that are not given here.

Columns and labels:
FQ-R MRSA = assay: MIC against FQ-R MRSA isolates; format: cell-based, Staphylococcus aureus; settings: n = 15 (147), n = 25 (284, 319, gepotidacin); for MIC90: Staphylococcus aureus, MRSA
D83N = assay: MIC against D83N mutant; format: cell-based
TopoIV/gyrase = TopoIV/gyrase inhibition ratio; format: biochemical
hERG = hERG (Homo sapiens, UniProt Q12809); assay: hERG inhibition; format: cell-based
hERG, sequence (Q12809 whole entry): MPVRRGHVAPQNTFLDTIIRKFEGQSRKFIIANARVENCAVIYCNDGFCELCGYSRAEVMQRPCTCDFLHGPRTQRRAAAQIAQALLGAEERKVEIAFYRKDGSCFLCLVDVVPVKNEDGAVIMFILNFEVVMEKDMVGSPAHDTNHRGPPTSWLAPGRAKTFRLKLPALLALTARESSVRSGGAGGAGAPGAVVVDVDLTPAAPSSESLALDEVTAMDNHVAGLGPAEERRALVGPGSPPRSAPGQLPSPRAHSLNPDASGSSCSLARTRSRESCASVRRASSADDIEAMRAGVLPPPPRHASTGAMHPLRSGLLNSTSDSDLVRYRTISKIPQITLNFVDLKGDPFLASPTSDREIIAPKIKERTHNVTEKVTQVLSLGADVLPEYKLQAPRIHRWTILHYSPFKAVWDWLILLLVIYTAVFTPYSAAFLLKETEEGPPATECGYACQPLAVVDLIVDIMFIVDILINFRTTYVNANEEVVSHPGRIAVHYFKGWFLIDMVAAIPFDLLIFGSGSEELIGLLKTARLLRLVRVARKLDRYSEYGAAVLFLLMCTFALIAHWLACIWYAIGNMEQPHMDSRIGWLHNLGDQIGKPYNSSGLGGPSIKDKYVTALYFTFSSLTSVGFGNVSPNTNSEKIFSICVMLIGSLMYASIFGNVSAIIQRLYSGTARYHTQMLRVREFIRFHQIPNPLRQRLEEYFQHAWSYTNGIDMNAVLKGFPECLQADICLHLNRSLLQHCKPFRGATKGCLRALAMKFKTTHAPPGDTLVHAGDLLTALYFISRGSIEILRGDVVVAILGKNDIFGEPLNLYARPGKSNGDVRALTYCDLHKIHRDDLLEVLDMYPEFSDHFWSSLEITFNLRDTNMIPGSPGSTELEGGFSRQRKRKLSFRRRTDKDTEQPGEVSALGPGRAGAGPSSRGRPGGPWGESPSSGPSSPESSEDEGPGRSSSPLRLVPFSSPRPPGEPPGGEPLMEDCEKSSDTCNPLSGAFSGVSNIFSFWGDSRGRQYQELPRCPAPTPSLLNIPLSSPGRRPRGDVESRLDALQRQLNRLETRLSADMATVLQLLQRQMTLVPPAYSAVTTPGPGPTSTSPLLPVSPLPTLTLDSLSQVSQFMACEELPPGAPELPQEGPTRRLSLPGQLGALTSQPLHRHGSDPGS

K562 = K562 cytotoxicity; format: cell-based; settings: Homo sapiens
[1] = Mouse microsomal stability; format: in vitro ADME; settings: microsomes, read-out: Mouse microsom. t1/2
[2] = Human microsomal stability; format: in vitro ADME; settings: microsomes, read-out: Human microsom. t1/2
S. aureus ATCC 29213 = format: cell-based; settings: Using S. aureus ATCC 29213
Staphylococcus aureus = assay: MIC50/90 against Staphylococcus aureus isolates; format: cell-based; settings: n = 30 (147), n = 100 (284, 319, gepotidacin)
Enterococcus spp. = assay: MIC50/90 against Enterococcus spp.; format: cell-based; settings: n = 10 (147), n = 20 (others)
Streptococcus pneumoniae = assay: MIC50/90 against Streptococcus pneumoniae; format: cell-based; settings: for MIC50: n = 5 (147), n = 10 (others); for MIC90: n = 10
Streptococcus pyogenes = assay: MIC50/90 against Streptococcus pyogenes; format: cell-based; settings: for MIC50: n = 5 (147), n = 10 (others); for MIC90: n = 10
Streptococcus agalactiae = assay: MIC50/90 against Streptococcus agalactiae; format: cell-based; settings: Streptococcus agalactiae; for MIC50: n = 5 (147), n = 10 (others); for MIC90: n = 10
Bacillus anthracis = assay: microbe, parasite or virus in culture; format: cell-based; settings: for MIC50: read-out: Bacillus anthracis MIC50 (μg/mL); for MIC90: read-out: Bacillus anthracis MIC90 (μg/mL)
Neisseria gonorrhoeae = assay: MIC50/90 against Neisseria gonorrhoeae; format: cell-based; settings: Neisseria gonorrhoeae; n = 17 (284, gepotidacin); n = 110 (147)
Escherichia coli 25922 = assay: MIC against Escherichia coli 25922; format: cell-based; settings: Escherichia coli, 25922
[3] = tested on: Acinetobacter baumannii 19606; assay: MIC against Acinetobacter baumannii 19606; format: cell-based
[4] = tested on: Pseudomonas aeruginosa 27853; assay: MIC against Pseudomonas aeruginosa 27853; format: cell-based
[5] = tested on: CYP 1A, 2B6, 2C8, 2C9, 2C19, 2D6, 3A; assay: CYP inhibition at 10 μM; format: in vitro ADME
CACO-2 = assay: Permeability: CACO-2 A->B; format: in vitro ADME
5-HT2b = 5-HT2b (Homo sapiens, UniProt P41595); assay: Safety44 screen at 100 μM: 5-HT2b
5-HT2b, sequence (P41595 whole entry): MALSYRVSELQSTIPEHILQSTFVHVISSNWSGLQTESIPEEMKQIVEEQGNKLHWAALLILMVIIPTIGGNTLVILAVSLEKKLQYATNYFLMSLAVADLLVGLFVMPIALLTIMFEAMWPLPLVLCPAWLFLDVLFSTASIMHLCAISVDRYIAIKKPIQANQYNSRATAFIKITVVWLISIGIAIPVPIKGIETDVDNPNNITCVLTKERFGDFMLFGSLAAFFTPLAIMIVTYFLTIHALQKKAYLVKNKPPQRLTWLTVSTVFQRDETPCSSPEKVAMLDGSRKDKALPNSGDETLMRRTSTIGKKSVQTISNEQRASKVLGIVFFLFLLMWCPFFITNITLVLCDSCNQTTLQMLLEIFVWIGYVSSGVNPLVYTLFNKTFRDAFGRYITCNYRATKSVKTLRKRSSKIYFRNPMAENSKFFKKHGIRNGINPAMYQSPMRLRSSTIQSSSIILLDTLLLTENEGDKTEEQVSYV

[6] = not given; remark: listed apart in the source
in vivo = settings: mouse
physchem = settings: pH 7.4, aqueous buffer, kinetic from dmso stock, Kinetic solubility at pH 7.4-7.5 (μM)
Mouse pharmacokinetics = settings: 284: as free base in immunocompetent mice, 147: no footnote
M121K = assay: MIC against M121K mutant; format: cell-based
Rat microsomal stability = format: in vitro ADME; settings: microsomes, read-out: Rat microsom. t1/2
Dog microsomal stability = format: in vitro ADME; settings: microsomes, read-out: Dog microsom. t1/2
[7] = Monkey microsomal stability; format: in vitro ADME; settings: microsomes, read-out: Monkey microsom. t1/2
Escherichia coli = assay: MIC50 against Escherichia coli isolates; format: cell-based; settings: n = 8
Pseudomonas aeruginosa = assay: MIC50 against Pseudomonas aeruginosa isolates; format: cell-based; settings: n = 8
[8] = Permeability: CACO-2 A->B; format: in vitro ADME; settings: human, Caco-2
[9] = Permeability: MDCK II A->B; format: in vitro ADME; settings: dog
S. aureus 29213 = assay: MIC against S. aureus 29213; format: cell-based; settings: Staphylococcus aureus
S. aureus USA300 = assay: MIC against S. aureus USA300; format: cell-based; settings: Staphylococcus aureus
S. aureus CF isolate = assay: MIC against S. aureus CF isolate; format: cell-based; settings: Staphylococcus aureus
[10] = all channels
in vitro [11] = settings: mouse, plasma
in vitro [12] = settings: human, plasma
in vitro [13] = settings: rat, plasma
[14] = tested on: Staphylococcus epidermidis; assay: MIC50/90 against Staphylococcus epidermidis; format: cell-based; settings: n = 10
Moraxella catarrhalis = assay: MIC50/90 against Moraxella catarrhalis; format: cell-based; settings: n = 10
Haemophilus influenzae = assay: MIC50/90 against Haemophilus influenzae; format: cell-based; settings: n = 10
Mycobacterium abscessus = assay: MIC50/90 against Mycobacterium abscessus; format: cell-based; settings: Mycobacteroides abscessus; n = 10
Mycobacterium avium = assay: MIC50 against Mycobacterium avium; format: cell-based; settings: n = 4
[15] = tested on: Mycobacterium chimaera intracellulare group; assay: MIC50 against Mycobacterium chimaera intracellulare group; format: cell-based; settings: n = 6
Francisella tularensis = assay: microbe, parasite or virus in culture; format: cell-based
Yersinia pestis = assay: microbe, parasite or virus in culture; format: cell-based
Burkholderia mallei = assay: microbe, parasite or virus in culture; format: cell-based; settings: Burkholderia mallei
[16] = tested on: Burkholderia pseudomallei; assay: microbe, parasite or virus in culture; format: cell-based
[17] = in vivo; cited from earlier work

COc1ccc2ncc(F)c(C[C@H](O)[C@H]3OC[C@H](NCc4cc5c(nn4)OCCS5)CO3)c2n1 [Compound 147, reference compound]
MIC90 (FQ-R MRSA): 0.25 µg/mL (≈ 0.511 µM)
MIC (D83N): 4 to 8 µg/mL (≈ 8.17 to 16.3 µM)
TopoIV/gyrase ratio (TopoIV/gyrase): 16
IC50 (hERG): 103 µM
IC50 (K562): 153 µM
half-life [1]: 0.3 to 0.433 h
half-life [2]: 1.57 h
Resistance freq. (at 8X MIC) (S. aureus ATCC 29213): 2.02 × 10^−9*
MIC50 (Staphylococcus aureus): 0.12 µg/mL (≈ 0.245 µM)
MIC90 (Staphylococcus aureus): 0.25 µg/mL (≈ 0.511 µM)
MIC50 (Enterococcus spp.): 0.25 µg/mL (≈ 0.511 µM)
MIC90 (Enterococcus spp.): 1 µg/mL (≈ 2.04 µM)
MIC50 (Streptococcus pneumoniae): 0.5 µg/mL (≈ 1.02 µM)
MIC50 (Streptococcus pyogenes): 0.5 µg/mL (≈ 1.02 µM)
MIC50 (Streptococcus agalactiae): 4 µg/mL (≈ 8.17 µM)
MIC50 (Bacillus anthracis): 2 µg/mL (≈ 4.09 µM)
MIC90 (Bacillus anthracis): 8 µg/mL (≈ 16.3 µM)
MIC50 (Neisseria gonorrhoeae): > 4 µg/mL
MIC90 (Neisseria gonorrhoeae): > 4 µg/mL
MIC (Escherichia coli 25922): > 64 µg/mL
MIC [3]: 64 µg/mL (≈ 131 µM)
MIC [4]: > 64 µg/mL
CYP inhibition at 10 μM (1A, 2B6, 2C8, 2C9, 2C19, 2D6, 3A) [5]: No issues
Permeability: CACO-2 A−>B (×10^−6 cm/s) (CACO-2): 5.68 ×10^−6 cm/s
Safety44 screen at 100 μM: 5-HT2b (5-HT2b): 5-HT2b (72%)
Mouse plasma protein binding (% unbound): 12 % unbound
Human plasma protein binding (% unbound) [6]: 15 % unbound
Vd (in vivo; Mouse Vdss (L)): 1 L
bioavailability (in vivo; po, Mouse PK Oral bioavailability (%)): 49%
solubility kinetic (physchem): 69.6 µM (≈ 34.1 µg/mL)
Mouse PK AUClast, unbound (μg*h/mL) after 50 mg/kg oral dose (Mouse pharmacokinetics; 50 mg/kg oral): 0.9 µg·h/mL
Mouse Clunbound (Mouse pharmacokinetics): 575 mL/min/kg

O=C1COc2ncc(CN[C@H]3CO[C@H](CC4Cn5c(=O)ccc6ccc(F)c4c65)OC3)nc2N1 (stereo partly drawn) [Compound 319, 6-(((2-((9-fluoro-4-oxo-1,2-dihydro-4H-pyrrolo[3,2,1-ij]quinolin-1-yl)methyl)-trans-1,3-dioxan-5-yl)amino)methyl)-2H-pyrazino[2,3-b][1,4]oxazin-3(4H)-one]
MIC90 (FQ-R MRSA): 0.5 µg/mL (≈ 1.07 µM)
FQ-R MRSA MIC90 (μg/mL) (FQ-R MRSA): 0.5/0.5 μg/mL
MIC (D83N): 4 µg/mL (≈ 8.56 µM)
MIC (M121K): 4 µg/mL (≈ 8.56 µM)
TopoIV/gyrase ratio (TopoIV/gyrase): 0.65
IC50 (K562): 135 µM
half-life [1]: 5.78 h
half-life [2]: > 2 h
half-life (Rat microsomal stability): > 2 h
half-life (Dog microsomal stability): > 2 h
half-life [7]: > 2 h
MIC50 (Staphylococcus aureus): 0.5 µg/mL (≈ 1.07 µM)
MIC90 (Staphylococcus aureus): 1 µg/mL (≈ 2.14 µM)
MIC50 (Enterococcus spp.): 4 µg/mL (≈ 8.56 µM)
MIC90 (Enterococcus spp.): 8 µg/mL (≈ 17.1 µM)
MIC50 (Streptococcus pneumoniae): 1 µg/mL (≈ 2.14 µM)
MIC90 (Streptococcus pneumoniae): 2 µg/mL (≈ 4.28 µM)
MIC50 (Streptococcus pyogenes): 2 µg/mL (≈ 4.28 µM)
MIC90 (Streptococcus pyogenes): 8 µg/mL (≈ 17.1 µM)
MIC50 (Streptococcus agalactiae): 16 µg/mL (≈ 34.2 µM)
MIC90 (Streptococcus agalactiae): 32 µg/mL (≈ 68.5 µM)
MIC50 (Escherichia coli): 16 µg/mL (≈ 34.2 µM)
MIC50 (Pseudomonas aeruginosa): 16 µg/mL (≈ 34.2 µM)
MIC (Escherichia coli 25922): 16 µg/mL (≈ 34.2 µM)
MIC [3]: 16 µg/mL (≈ 34.2 µM)
MIC [4]: 64 µg/mL (≈ 137 µM)
Papp A→B [8]: 0.8 ×10⁻⁶ cm/s
Papp A→B [9]: 1.96 ×10⁻⁶ cm/s
MIC (S. aureus 29213): 0.5 µg/mL (≈ 1.07 µM)
MIC (S. aureus USA300): 0.5 µg/mL (≈ 1.07 µM)
MIC (S. aureus CF isolate): 0.25 µg/mL (≈ 0.535 µM)
Mouse plasma protein binding (% unbound): 27 % unbound
Human plasma protein binding (% unbound) [6]: 23 % unbound
Comprehensive in vitro proarrhythmia assay at 100 μM, inhibition [10]: All <25%
half-life (in vitro [11]): > 4 h
half-life (in vitro [12]): 2.18 h
half-life (in vitro [13]): > 4 h
solubility kinetic (physchem): 25 µM (≈ 11.7 µg/mL)

O=c1ccc2ncc(=O)n3c2n1C[C@H]3CN1CCC(NCc2cc3c(cn2)OCCC3)CC1 [gepotidacin, reference compound]
MIC90 (FQ-R MRSA): 0.5 µg/mL (≈ 1.11 µM)
MIC50 (Staphylococcus aureus): 0.25 µg/mL (≈ 0.557 µM)
MIC90 (Staphylococcus aureus): 0.5 µg/mL (≈ 1.11 µM)
MIC50 [14]: 0.25 µg/mL (≈ 0.557 µM)
MIC90 [14]: 0.5 µg/mL (≈ 1.11 µM)
MIC50 (Enterococcus spp.): 2 µg/mL (≈ 4.46 µM)
MIC90 (Enterococcus spp.): 4 µg/mL (≈ 8.92 µM)
MIC50 (Streptococcus pneumoniae): 0.12 µg/mL (≈ 0.268 µM)
MIC90 (Streptococcus pneumoniae): 0.25 µg/mL (≈ 0.557 µM)
MIC50 (Streptococcus pyogenes): 0.12 µg/mL (≈ 0.268 µM)
MIC90 (Streptococcus pyogenes): 0.5 µg/mL (≈ 1.11 µM)
MIC50 (Streptococcus agalactiae): 0.5 µg/mL (≈ 1.11 µM)
MIC90 (Streptococcus agalactiae): 1 µg/mL (≈ 2.23 µM)
MIC50 (Moraxella catarrhalis): 0.06 µg/mL (≈ 0.134 µM)
MIC90 (Moraxella catarrhalis): 0.06 µg/mL (≈ 0.134 µM)
MIC50 (Haemophilus influenzae): 1 µg/mL (≈ 2.23 µM)
MIC90 (Haemophilus influenzae): 2 µg/mL (≈ 4.46 µM)
MIC50 (Mycobacterium abscessus): 16 µg/mL (≈ 35.7 µM)
MIC90 (Mycobacterium abscessus): 64 µg/mL (≈ 143 µM)
MIC50 (Mycobacterium avium): 32 µg/mL (≈ 71.3 µM)
MIC50 [15]: > 64 µg/mL
MIC50 (Bacillus anthracis): 0.5 µg/mL (≈ 1.11 µM)
MIC90 (Bacillus anthracis): 0.5 µg/mL (≈ 1.11 µM)
MIC50 (Francisella tularensis; read-out: Francisella tularensis MIC50 (μg/mL)): 0.12 µg/mL (≈ 0.268 µM)
MIC90 (Francisella tularensis; read-out: Francisella tularensis MIC90 (μg/mL)): 0.5 µg/mL (≈ 1.11 µM)
MIC50 (Yersinia pestis; read-out: Yersinia pestis MIC50 (μg/mL)): 0.12 µg/mL (≈ 0.268 µM)
MIC90 (Yersinia pestis; read-out: Yersinia pestis MIC90 (μg/mL)): 0.5 µg/mL (≈ 1.11 µM)
MIC50 (Burkholderia mallei; read-out: Burkholderia mallei MIC50 (μg/mL)): 8 µg/mL (≈ 17.8 µM)
MIC90 (Burkholderia mallei; read-out: Burkholderia mallei MIC90 (μg/mL)): ≥ 64 µg/mL
MIC50 ([16]; read-out: Burkholderia pseudomallei MIC50 (μg/mL)): 32 µg/mL (≈ 71.3 µM)
MIC90 ([16]; read-out: Burkholderia pseudomallei MIC90 (μg/mL)): 32 µg/mL (≈ 71.3 µM)
MIC50 (Neisseria gonorrhoeae): 0.5 µg/mL (≈ 1.11 µM)
MIC90 (Neisseria gonorrhoeae): 1 µg/mL (≈ 2.23 µM)
MIC (Escherichia coli 25922): 1 to 2 µg/mL (≈ 2.23 to 4.46 µM)
MIC [3]: 32 µg/mL (≈ 71.3 µM)
MIC [4]: 8 to 16 µg/mL (≈ 17.8 to 35.7 µM)

NXL-101
QT-prolongation in clinical studies [17]: withdrawn from clinical studies as a result of QT-prolongation
